Legend:
Type in all cases: cell-based
SLICK = target: T1, SLICK (Homo sapiens, UniProt Q6UVM3); test: Tl+-flux selectivity panel in HEK-293 cells: SLICK; settings: HEK293, 10 µM test compound, relative to control SKF96365, read-out: Percent Inhibition ± SEM
T1 construct: expressed in transfected cells; host or cells: HEK293
T1 sequence (Q6UVM3 1-1135): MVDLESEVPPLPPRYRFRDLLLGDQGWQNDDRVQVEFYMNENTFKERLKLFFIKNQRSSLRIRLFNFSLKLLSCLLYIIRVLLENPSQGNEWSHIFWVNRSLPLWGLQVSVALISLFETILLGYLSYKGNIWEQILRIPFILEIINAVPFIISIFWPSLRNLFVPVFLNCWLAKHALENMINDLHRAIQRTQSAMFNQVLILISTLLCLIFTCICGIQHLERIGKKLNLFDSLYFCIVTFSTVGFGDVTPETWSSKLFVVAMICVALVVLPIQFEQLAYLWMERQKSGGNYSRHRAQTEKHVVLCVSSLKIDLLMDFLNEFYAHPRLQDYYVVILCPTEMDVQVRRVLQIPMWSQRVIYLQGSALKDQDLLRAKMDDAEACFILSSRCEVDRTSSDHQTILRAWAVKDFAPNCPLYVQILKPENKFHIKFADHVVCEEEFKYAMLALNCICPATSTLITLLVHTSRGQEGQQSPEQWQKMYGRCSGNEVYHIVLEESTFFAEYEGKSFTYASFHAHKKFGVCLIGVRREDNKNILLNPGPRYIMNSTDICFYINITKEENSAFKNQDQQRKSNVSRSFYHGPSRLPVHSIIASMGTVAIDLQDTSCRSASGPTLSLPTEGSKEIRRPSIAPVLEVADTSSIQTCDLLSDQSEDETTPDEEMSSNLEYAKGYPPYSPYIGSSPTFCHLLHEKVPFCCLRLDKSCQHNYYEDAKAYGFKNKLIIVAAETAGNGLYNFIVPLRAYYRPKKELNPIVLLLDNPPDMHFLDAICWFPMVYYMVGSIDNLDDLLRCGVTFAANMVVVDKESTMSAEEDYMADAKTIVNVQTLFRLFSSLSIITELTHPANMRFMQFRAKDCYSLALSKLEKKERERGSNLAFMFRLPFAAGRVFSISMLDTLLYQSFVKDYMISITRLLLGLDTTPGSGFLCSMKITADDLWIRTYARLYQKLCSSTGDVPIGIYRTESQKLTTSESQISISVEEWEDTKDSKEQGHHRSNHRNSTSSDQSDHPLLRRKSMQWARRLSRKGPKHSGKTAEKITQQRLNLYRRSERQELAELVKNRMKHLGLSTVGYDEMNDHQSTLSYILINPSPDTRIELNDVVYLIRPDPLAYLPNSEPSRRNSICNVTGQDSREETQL
Experimental: (§1) With a handful of analogs that offered improved SLACK potency relative to hit compound 8, we next proceeded to investigate the ancillary pharmacology of such compounds, both with respect to other Slo family members as well as versus a spectrum of diverse ion channels (Table 5). Thus, we screened four compounds (32, 48, 70, and 71) at 10 µM in our in-house selectivity panel of Tl^+-flux assays in HEK-293 cells stably expressing the target of interest. […] Some valuable SAR was noted as well. […] Reduction of inhibition at Maxi-K α1/β4 also followed. This SAR will be important to bear in mind for continued optimization within this series. […] Of particular note is the lack of significant hERG activity in this series, as activity versus that counter-target has been an issue with other SLACK inhibitors.
(§2) Stably transfected monoclonal HEK293 cell lines expressing Slick, Maxi-K α1/β3, Maxi-K α1/β4, CaV3.2, GIRK 1/2, KV2.1, KV7.2, NaV1.7, and TASK-1 were generated as previously described. Stably transfected monoclonal HEK293 cell lines expressing hERG were generated as previously described. CHO-K1 cells expressing human Slack and disease-associated human Slack mutations, G288S and A934T, were generated by transfecting a PiggyBac TRE mammalian expression vector (VectorBuilder, Chicago, IL, USA) containing KCNT1. FuGENE 6 (Promega, Madison, WI, USA) transfection reagent and protocol, together with Opti-MEM (Thermo Fisher Scientific, Walkham, MA, USA), were utilized.
(§3) The Tl^+ flux assays were conducted as previously described with modifications optimized for individual cell lines as described below. Following removal of cell culture media, cells were loaded with Tl^+-sensitive dye loading solution containing Thallos-AM (ION Biosciences, San Marcos, TX, USA), 1.25 mM Probenecid, and 0.3% Pluronic F-127 (MilliporeSigma, Burlington, MA, USA), in assay buffer comprised of Hanks Balanced Salt Solution (HBSS) (Thermo Fisher Scientific, Waltham, MA, USA) and 20 mM HEPES (Corning, Corning, NY, USA) at room temperature for one-hour. Dye loading solution was replaced with 20 μL/well of assay buffer prior to assaying. Cell plates were then loaded onto a Panoptic kinetic imaging plate reader (WaveFront Biosciences, Franklin, TN, USA). Data were acquired at 5 Hz (excitation 482 ± 35 nm, emission 536 ± 40 nm) for 10 s, at which time 20 μL/well of test compounds in assay buffer at 2-fold above the desired final concentration was added and allowed to incubate for 120 s. Next, 10 μL/well of Tl^+ stimulus buffer (129 mM Na gluconate, 1.2 mM CaSO4, 1 MgSO4, 1 mM Na2HPO4, 4.17 mM NaHCO3, 5.56 mM glucose, 2.5 mM Tl2SO4, and 10 mM HEPES pH 7.3) was added. Imaging was concluded after an additional 120 s.

hERG = target: T2, hERG (Homo sapiens, UniProt Q12809); test: Tl+-flux selectivity panel in HEK-293 cells: hERG; settings: HEK-293 cells stably expressing hERG, 10 µM test compound, relative to control bepridil, read-out: Percent Inhibition ± SEM
T2 construct: expressed in transfected cells; host or cells: HEK293
Experimental: as §1, §2, §3

KV7.2 = target: T3, KV7.2 (Homo sapiens, UniProt O43526); test: Tl+-flux selectivity panel in HEK-293 cells: KV7.2; settings: HEK293, 10 µM test compound, relative to control XE991, read-out: Percent Inhibition ± SEM
T3 construct: expressed in transfected cells; host or cells: HEK293
Experimental: as §1, §2, §3

T2 sequence (Q12809 whole entry): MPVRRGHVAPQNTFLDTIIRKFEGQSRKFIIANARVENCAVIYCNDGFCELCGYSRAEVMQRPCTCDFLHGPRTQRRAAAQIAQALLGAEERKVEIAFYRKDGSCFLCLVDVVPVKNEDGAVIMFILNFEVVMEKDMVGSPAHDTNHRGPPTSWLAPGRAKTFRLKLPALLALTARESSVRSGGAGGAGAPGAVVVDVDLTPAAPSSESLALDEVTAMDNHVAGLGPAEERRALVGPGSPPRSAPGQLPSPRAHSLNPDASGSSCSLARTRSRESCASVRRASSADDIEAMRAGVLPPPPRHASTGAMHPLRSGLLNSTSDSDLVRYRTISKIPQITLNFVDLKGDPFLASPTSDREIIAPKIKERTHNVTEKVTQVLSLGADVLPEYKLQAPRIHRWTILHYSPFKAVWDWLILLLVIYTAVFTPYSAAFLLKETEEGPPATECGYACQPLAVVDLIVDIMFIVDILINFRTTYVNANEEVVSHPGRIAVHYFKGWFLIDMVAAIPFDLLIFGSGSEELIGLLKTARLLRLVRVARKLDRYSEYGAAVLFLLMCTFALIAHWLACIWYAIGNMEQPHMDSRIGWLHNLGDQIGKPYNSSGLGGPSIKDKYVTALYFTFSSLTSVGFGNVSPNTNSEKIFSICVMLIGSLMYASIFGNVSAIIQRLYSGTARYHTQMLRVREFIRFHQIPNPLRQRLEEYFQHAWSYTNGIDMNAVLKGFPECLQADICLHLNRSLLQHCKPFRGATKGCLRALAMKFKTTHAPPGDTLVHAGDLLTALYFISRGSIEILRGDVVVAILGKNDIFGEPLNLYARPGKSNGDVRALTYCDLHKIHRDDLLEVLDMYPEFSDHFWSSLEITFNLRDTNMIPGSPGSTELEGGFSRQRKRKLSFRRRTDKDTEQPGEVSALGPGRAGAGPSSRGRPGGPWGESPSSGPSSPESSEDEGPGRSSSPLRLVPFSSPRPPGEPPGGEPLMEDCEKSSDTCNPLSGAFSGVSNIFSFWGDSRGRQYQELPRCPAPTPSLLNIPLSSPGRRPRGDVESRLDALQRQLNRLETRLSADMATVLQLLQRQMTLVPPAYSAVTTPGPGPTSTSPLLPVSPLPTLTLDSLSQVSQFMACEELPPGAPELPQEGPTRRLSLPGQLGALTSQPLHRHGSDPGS

## CN(Cc1cccc(F)c1)c1nc2c(c(=O)n(Cc3ccccc3)c(=O)n2C)n1C [Analog 48]
SLICK
  inhibition at 10 µM: 21 ± 3.1%
hERG
  inhibition at 120 s, 10 µM: -2.8 ± 2.4%
KV7.2
  inhibition at 10 µM: 15 ± 2.3%

## Cn1c(N(Cc2ccccc2)CC2CC2)nc2c1c(=O)n(Cc1ccccc1)c(=O)n2C [Analog 71]
SLICK
  inhibition at 10 µM: 17 ± 2.5%
hERG
  inhibition at 120 s, 10 µM: 23 ± 4%
KV7.2
  inhibition at 10 µM: 14 ± 1.6%

## CCCCN(Cc1ccccc1)c1nc2c(c(=O)n(Cc3ccccc3)c(=O)n2C)n1C [Analog 70]
SLICK
  inhibition at 10 µM: 18 ± 4.2%
hERG
  inhibition at 120 s, 10 µM: 22 ± 2%
KV7.2
  inhibition at 10 µM: 19 ± 0.2%

## COc1cccc(Cn2c(=O)c3c(nc(N(C)Cc4ccccc4)n3C)n(C)c2=O)c1 [Analog 32]
SLICK
  inhibition at 10 µM: 28 ± 5.5%
hERG
  inhibition at 120 s, 10 µM: 4.6 ± 4.5%
KV7.2
  inhibition at 10 µM: 16 ± 2.2%

From publication PMC11173529, “Structure–Activity Relationship Studies in a Series of Xanthine Inhibitors of SLACK Potassium Channels” (Molecules, 2024)
